Test results taken from patent US20090142364A1, “Method for finding novel peptide immunostimulatory adjuvants, compositions and methods of use” (priority 2007, published 2009).
Entries after “also recorded” stand apart in the source; their conditions may differ. Where a SMILES comes first, the peptide text is derived from it.

Assays:
[1] = Immunogenicity of the peptide: anti-peptide antibody titer by solid-phase ELISA; type: in vivo, Balb/c mice; conditions: mice immunized once or twice in PBS, 1-100 μg i.p.
Experimental: Immunogenicity of the peptide. Groups of Balb/c mice (5 mice) were immunized with 1-100 μg RN-peptide in PBS i.p. twice with 10-day interval. The anti-peptide antibody titer was estimated in pooled sera by solid-phase ELISA using MaxiSorb plates (Nunc, Denmark) coated with RN-peptide (10 μg/ml). The anti-peptide antibody titer was compared with the titer of normal mouse serum. E6/1.2 mAb was used as a positive control.

[2] = rat, in vivo, ip
Experimental: We studied the Ia-antigen-inducing activity of RN-peptide by stimulation in vitro of murine peritoneal macrophages. Flow cytometry was used to assess Ia-antigen expression. […] The pyrogenicity of the peptide was studied in Wistar rats. […] The dynamics of alteration of rectal temperature were monitored during 2.5 h.
The pyrogenic effect SPF female Wistar rats were injected i.p. with a peptide (1.01 mg/kg; 5.74×10^−7 mole/kg) in PBS or with equal dose of GMDP (0.4 mg/kg; 5.74×10^−7 mole/kg). Rectal temperature was recorded every 5 minutes for 160 minutes using PowerLabe/4sp system with an electronic thermometer (MLT1403 Rectal Probe for Rats, AD Instruments USA). All data were quantified (mean±SEM) and compared by the variance analysis.

E6/1.2 mAb = experiment: Solid-phase ELISA of TentaGel-bound synthesized peptide with E6/1.2 mAb; type: binding, mouse
Experimental: Different biological activities are characteristic of GMDP, including adjuvant activity, induction of non-specific resistance to infections, and the ability to induce Ia-antigen expression on murine macrophages (Khaidukov S. V. 1995). In order to evaluate the biological properties, we produced RN-peptide by solid-phase synthesis by Fmoc strategy. Two types of polymers were used, namely standard Wang's resin and TentaGel (Rapp Polymere, Germany). The synthesis carried out on Wang's resin yielded, after removal of protective groups, the free peptide which was used in biological studies after standard chromatographic purification. When hydrophilic TentaGel was used as solid support, the peptide remained bound to polymer after removal of protective groups enabling evaluation of its binding to E6/1.2 mAb by solid-phase ELISA.
Peptide synthesis. All peptides were synthesized manually by the Fmoc/t-Bu technique. Wang Resin (Bachem, Switzerland) was loaded with Fmoc-Asn(Trt)-OH via diisopropylcarbodiimide-4-dimethylaminopyridine (DIC-DMAP) procedure (Heinzelmann et al. 2000). […] Coupling efficiency during polypeptide chain assembly was routinely monitored by Kaiser ninhydrine test and in case of incomplete reactions extra couplings were carried out. […]

[3] = test system: antibody response to N. meningitidis serogroup C capsular polysaccharide; experiment: Antibody response to N. meningitidis serogroup C capsular polysaccharide, passive agglutination test; type: in vivo, CBA mice; conditions: 0.2 μg capsular polysaccharide i.v.
Experimental: Immunization with capsular polysaccharide of N. meningitidis serogroup C was carried out in CBA mice. Groups of 5 mice were administered i.v. with polysaccharide C (0.2 μg) in saline in the presence of 1-100 μg of RN-peptide. Control mice were immunized with optimal dose (2 μg/mouse) of polysaccharide. Four days later mice were bled from tail vein and the antibody titer was evaluated by passive agglutination test using commercial erythrocyte diagnostic kit.

E. coli strain TG-1 = experiment: Survival of Balb/c mice infected with E. coli strain TG-1; type: in vivo, mouse; conditions: 2 ng i.p., 6 mice at 0 h
Experimental: Groups of Balb/c mice (20-22 g) were administered i.p. with RN-peptide, or GMDP, or saline (control), and then infected i.p. with E. coli strain TG-1 cells. Two doses of E. coli cells were used—1×10^8 (LD50) and 2×10^8 (LD100). Mice were infected one day (experiment A) or seven days (experiment B) after injection of the immunomodulator. Survival of mice was assessed during three days. Results showing that RN-peptide protects mice from lethal doses of E. coli infections (Table 4).

[4] = Experiment A (infected one day after injection), 1 × 10^8 E. coli cells (LD50)
[5] = Experiment A (infected one day after injection), 2 × 10^8 E. coli cells (LD100)
[6] = Experiment B (infected seven days after injection), 1 × 10^8 E. coli cells (LD50)
[7] = Experiment B (infected seven days after injection), 2 × 10^8 E. coli cells (LD100)

## CC[C@H](C)[C@H](NC(=O)[C@H](CCCCN)NC(=O)[C@H](C)NC(=O)[C@H](Cc1c[nH]cn1)NC(=O)[C@H](Cc1ccc(O)cc1)NC(=O)[C@H](CCCNC(=N)N)NC(=O)[C@@H]1CCCN1C(=O)[C@@H]1CCCN1C(=O)[C@@H](NC(=O)[C@@H](N)CCCNC(=N)N)C(C)C)C(=O)N[C@@H](CO)C(=O)N1CCC[C@H]1C(=O)N[C@@H](CCSC)C(=O)N[C@H](C(=O)N[C@@H](CC(N)=O)C(=O)O)C(C)C [RN-peptide, RVPPRYHAKISPMVN] (H-RVPPRYHAKISPMVN-OH)
[1]
  anti-RN-peptide antibodies (humoral response to the peptide): did not reveal any anti-RN-peptide antibodies; also recorded: did not exceed the titer of native mice
[2]
  increase in body temperature: did not produce this effect
E6/1.2 mAb
  binding to GMDP-specific mAb: retained the ability
[3]
  anti-polysaccharide antibody titer (in words): increased considerably
E. coli strain TG-1; [4]
  Number of survivors: 5
  surviving mice, 24 hours after infection: 6
  surviving mice, 28 hours after infection: 5
  surviving mice, 72 hours after infection: 5
E. coli strain TG-1; [5]
  Number of survivors: 2
  surviving mice, 24 hours after infection: 5
  surviving mice, 28 hours after infection: 5
  surviving mice, 72 hours after infection: 2
E. coli strain TG-1; [6]
  Number of survivors: 4
  surviving mice, 24 hours after infection: 6
  surviving mice, 28 hours after infection: 5
  surviving mice, 72 hours after infection: 4
E. coli strain TG-1; [7]
  Number of survivors: 1
  surviving mice, 24 hours after infection: 3
  surviving mice, 28 hours after infection: 3
  surviving mice, 72 hours after infection: 1
